These results are taken from ChEMBL document CHEMBL1201862, “PubChem BioAssay data set” (2004).

In test [1] the target is Intestinal-type alkaline phosphatase (Mus musculus, UniProt P24822). Nature of the test: PubChem AID 488785. Format: functional.
Test [2] concerns the target T1, Alkaline phosphatase, tissue-nonspecific isozyme (Homo sapiens, UniProt P05186).
T1 sequence (P05186 whole entry): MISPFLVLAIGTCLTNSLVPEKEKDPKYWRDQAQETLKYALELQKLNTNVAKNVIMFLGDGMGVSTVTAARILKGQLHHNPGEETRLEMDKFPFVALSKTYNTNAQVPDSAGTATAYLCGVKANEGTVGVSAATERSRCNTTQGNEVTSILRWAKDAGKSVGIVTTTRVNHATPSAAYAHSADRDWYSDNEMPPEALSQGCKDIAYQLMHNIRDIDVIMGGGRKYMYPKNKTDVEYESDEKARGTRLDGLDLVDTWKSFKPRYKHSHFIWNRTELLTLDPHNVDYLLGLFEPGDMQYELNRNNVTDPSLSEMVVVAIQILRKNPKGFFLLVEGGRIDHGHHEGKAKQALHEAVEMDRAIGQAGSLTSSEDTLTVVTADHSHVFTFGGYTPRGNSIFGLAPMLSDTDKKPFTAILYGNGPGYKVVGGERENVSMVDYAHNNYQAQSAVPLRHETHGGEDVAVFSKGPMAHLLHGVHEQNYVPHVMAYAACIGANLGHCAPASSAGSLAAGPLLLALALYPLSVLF
Nature of the test: TNAP enzyme inhibition by screening hits, dose response, selectivity assay for mouse IAP inhibitor project, biochemical, human TNAP, uHTS hits (AID 488906). Format: functional.

Test [3] concerns the target Intestinal-type alkaline phosphatase (Homo sapiens, UniProt P09923). Description: inhibition of human intestinal alkaline phosphatase – biochemical, dose response (AID 488876). The test is classed as functional.
For test [4], the target named is T2, Bcl-2-related protein A1 (Mus musculus, UniProt Q07440).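 Also: confirmatory dose–response counterscreen on Bfl-1, used to check hits from a UBC13 polyubiquitin inhibitor campaign.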
T2 sequence (Q07440 whole entry): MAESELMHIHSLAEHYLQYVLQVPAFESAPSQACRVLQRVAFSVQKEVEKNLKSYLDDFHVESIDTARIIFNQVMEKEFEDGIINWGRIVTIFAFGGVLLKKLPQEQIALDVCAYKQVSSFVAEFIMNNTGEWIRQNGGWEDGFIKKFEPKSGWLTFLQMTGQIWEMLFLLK
Format: functional.

Test [5] concerns the target T3, Ubiquitin-conjugating enzyme E2 N (Homo sapiens, UniProt P61088).
T3 sequence (P61088 whole entry): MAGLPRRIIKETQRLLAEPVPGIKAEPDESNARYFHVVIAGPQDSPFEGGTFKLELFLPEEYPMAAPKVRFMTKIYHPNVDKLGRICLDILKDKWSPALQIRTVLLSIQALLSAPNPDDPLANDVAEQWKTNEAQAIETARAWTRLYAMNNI
Format: functional.

Test [6] deals with T3, Ubiquitin-conjugating enzyme E2 N. The test is classed as functional. The source holds these as a separate data set.
Test [7] has as its target T4, Tyrosine-protein phosphatase non-receptor type 22 (Homo sapiens, UniProt Q9Y2R2).
T4 sequence (Q9Y2R2 whole entry): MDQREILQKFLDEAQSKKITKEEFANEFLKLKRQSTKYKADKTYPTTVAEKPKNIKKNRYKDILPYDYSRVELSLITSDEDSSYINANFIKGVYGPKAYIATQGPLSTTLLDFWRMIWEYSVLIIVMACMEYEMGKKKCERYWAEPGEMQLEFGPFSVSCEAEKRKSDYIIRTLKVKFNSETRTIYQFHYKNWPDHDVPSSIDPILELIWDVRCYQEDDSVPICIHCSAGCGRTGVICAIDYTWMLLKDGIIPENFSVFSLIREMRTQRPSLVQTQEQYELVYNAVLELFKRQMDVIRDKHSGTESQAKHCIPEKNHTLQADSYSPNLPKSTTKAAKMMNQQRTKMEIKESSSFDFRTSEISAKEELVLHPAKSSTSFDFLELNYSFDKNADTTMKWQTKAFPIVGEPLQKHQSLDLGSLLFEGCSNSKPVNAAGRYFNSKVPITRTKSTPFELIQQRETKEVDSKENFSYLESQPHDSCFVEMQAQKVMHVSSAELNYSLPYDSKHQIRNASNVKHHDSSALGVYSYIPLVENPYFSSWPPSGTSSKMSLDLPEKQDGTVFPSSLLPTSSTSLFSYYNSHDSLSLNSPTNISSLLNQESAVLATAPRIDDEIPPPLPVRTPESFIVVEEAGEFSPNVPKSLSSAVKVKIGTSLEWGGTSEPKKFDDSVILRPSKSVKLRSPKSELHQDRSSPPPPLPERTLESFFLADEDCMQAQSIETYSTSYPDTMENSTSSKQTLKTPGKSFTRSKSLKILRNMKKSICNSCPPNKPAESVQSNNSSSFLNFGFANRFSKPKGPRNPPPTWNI
Format: functional.

Test [8] deals with T5, Tyrosine-protein phosphatase non-receptor type 7 (Homo sapiens, UniProt P35236).
T5 sequence (P35236 whole entry): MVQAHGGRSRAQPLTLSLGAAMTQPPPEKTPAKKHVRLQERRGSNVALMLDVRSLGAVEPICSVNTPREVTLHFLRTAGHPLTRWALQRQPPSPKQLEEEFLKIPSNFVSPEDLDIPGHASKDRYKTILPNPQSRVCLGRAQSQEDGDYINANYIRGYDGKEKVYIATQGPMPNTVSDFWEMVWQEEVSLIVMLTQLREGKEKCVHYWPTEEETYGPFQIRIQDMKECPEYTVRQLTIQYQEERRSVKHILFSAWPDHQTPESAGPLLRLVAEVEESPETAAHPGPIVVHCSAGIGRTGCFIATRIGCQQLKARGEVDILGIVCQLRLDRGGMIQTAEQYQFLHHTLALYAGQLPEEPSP
Format: functional.

The target of test [9] is T4, Tyrosine-protein phosphatase non-receptor type 22. Format: functional. The source holds these as a separate data set.
The target in test [10] is T6, Corticotropin-releasing factor receptor 2/Corticotropin-releasing factor-binding protein (Homo sapiens, UniProt P24387+Q13324).
T6 sequence (Q13324 whole entry): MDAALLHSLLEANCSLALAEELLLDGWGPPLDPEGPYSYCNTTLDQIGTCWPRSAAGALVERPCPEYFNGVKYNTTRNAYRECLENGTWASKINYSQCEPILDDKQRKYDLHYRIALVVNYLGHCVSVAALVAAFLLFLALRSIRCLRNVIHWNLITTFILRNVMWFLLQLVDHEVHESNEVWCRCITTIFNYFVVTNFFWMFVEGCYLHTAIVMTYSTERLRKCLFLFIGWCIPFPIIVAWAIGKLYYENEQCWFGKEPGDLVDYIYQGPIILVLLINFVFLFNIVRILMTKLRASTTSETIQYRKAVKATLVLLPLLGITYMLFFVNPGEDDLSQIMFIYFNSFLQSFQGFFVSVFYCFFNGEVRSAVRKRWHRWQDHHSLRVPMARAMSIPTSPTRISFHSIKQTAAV
T6 sequence (P24387 whole entry): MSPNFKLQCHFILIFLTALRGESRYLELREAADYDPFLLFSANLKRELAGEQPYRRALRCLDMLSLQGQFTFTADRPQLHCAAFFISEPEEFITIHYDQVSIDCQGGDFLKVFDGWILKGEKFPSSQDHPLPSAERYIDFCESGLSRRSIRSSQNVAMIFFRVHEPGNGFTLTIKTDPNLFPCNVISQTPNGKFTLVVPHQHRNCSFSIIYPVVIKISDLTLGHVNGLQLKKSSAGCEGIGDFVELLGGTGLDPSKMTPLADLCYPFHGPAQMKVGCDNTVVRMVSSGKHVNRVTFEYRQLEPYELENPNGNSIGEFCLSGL
Nature of the test: Dose Response confirmation of uHTS hits for small molecule antagonists of the CRF-binding protein and CRF-R2 receptor complex. The test is classed as functional. Conditions: read-out: IC50_Mean.

For test [11], the target named is T6, Corticotropin-releasing factor receptor 2/Corticotropin-releasing factor-binding protein. Nature of the test: activators of CRF receptor 2 with binding protein – uHTS hits, confirmation (AID 602473). The test is classed as functional. Conditions: read-out: EC50_Mean.
The nature of test [12]: cells. The test is classed as functional.
Test [13] deals with T7, Heat shock factor protein 1 (Mus musculus, UniProt P38532).
T7 sequence (P38532 whole entry): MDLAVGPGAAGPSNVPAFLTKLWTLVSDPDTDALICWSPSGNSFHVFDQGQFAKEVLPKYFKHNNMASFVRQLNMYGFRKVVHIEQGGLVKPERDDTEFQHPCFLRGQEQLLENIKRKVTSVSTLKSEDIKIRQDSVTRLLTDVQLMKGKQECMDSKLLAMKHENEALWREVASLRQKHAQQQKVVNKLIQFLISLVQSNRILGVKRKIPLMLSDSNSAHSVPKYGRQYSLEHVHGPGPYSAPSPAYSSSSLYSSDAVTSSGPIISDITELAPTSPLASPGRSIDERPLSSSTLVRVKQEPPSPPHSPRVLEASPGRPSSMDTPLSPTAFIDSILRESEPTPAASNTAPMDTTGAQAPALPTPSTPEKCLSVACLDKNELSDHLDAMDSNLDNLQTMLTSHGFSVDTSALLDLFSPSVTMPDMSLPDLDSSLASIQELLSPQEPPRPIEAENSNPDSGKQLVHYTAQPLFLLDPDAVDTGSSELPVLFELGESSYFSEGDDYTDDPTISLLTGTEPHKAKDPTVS
Nature of the test: HSF1 potentiators in luciferase reporter cells, confirmation, cell-based, NIH3T3, luminescence, dose retest (AID 435004).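 Also: stress induced by proteasome inhibitor MG132 added 30 min after compound; luciferase reporter driven by HSF1 response element in NIH3T3 cells; actives raise luminescence as potentiators of the MG132 stress response.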 The test is classed as functional. (In general: In a reporter assay the amount or activity of a reporter protein is the signal.)

Test [14] can be described thus: Vero E6 cell cytotoxicity, dose response, cytotoxicity control for non-replicating M. tuberculosis project, secondary assay (AID 492998). Format: functional, VeroE6. Conditions: Vero C1008.
Test [15] in a line: THP-1 cell cytotoxicity, dose response, cytotoxicity control for non-replicating M. tuberculosis project (AID 489025). Format: functional.
Test [16] has as its target T8, Microphthalmia-associated transcription factor (Homo sapiens, UniProt O75030).
T8 sequence (O75030 whole entry): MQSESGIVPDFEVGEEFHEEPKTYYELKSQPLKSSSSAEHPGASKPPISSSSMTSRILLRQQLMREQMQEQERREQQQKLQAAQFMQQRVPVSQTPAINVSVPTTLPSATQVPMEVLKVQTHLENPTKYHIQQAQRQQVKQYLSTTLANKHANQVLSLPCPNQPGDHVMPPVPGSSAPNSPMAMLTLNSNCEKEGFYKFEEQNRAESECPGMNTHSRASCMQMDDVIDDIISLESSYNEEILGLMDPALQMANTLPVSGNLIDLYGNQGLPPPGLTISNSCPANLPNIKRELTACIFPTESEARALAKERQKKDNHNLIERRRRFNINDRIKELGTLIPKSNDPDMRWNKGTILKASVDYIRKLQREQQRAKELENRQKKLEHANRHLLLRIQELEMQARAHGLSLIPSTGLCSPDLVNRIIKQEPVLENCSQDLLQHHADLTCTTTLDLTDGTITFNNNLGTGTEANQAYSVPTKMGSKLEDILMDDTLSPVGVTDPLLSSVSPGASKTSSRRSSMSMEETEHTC
Nature of the test: TRPM1 promoter luciferase signal decrease, dose response, MITF inhibitor project, cell-based, SK-MEL-5, cherry-picked, set 3 (AID 493073).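 Also: SK-MEL-5 melanoma cells with luciferase driven by the MITF target TRPM1 promoter.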 The test is classed as functional.

SMILES strings stand for the structures. The source made the active and inactive calls. Rule as the data show it, for most assays here: actives have a measured IC50 and inactives only a lower limit.

Chain of Intestinal-type alkaline phosphatase (Homo sapiens, UniProt P09923) (P09923 whole entry): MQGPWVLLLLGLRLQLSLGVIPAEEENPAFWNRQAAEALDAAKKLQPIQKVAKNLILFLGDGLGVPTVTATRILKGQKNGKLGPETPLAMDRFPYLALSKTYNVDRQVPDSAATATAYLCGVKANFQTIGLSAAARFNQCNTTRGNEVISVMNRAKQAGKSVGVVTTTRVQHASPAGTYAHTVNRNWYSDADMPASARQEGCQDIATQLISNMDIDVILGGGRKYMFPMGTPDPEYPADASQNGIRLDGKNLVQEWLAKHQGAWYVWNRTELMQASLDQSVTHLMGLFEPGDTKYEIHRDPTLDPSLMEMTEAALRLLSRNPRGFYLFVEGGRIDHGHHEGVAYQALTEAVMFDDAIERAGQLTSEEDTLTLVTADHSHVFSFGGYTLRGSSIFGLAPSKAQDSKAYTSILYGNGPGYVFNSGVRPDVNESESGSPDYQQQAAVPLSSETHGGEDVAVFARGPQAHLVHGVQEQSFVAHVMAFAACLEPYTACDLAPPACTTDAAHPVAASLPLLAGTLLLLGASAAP
Chain of Intestinal-type alkaline phosphatase (Mus musculus, UniProt P24822) (P24822 whole entry): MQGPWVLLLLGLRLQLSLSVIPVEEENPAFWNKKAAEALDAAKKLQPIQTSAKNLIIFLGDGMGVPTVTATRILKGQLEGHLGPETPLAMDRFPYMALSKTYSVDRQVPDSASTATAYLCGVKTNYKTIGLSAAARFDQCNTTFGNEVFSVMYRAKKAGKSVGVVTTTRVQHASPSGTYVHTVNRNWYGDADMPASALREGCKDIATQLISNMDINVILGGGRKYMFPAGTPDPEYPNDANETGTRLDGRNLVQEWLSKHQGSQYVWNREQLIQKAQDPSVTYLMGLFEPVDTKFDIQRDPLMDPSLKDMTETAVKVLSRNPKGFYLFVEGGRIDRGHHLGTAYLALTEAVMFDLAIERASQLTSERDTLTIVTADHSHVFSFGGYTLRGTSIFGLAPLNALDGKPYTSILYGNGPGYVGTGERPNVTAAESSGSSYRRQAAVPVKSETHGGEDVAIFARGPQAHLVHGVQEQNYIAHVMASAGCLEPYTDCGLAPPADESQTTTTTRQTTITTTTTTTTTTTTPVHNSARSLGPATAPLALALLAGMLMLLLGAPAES

As for `Cc1cc(F)ccc1S(=O)(=O)Nc1ccc(O)c(Sc2nnc[nH]2)c1`, the IC50 in test [1] was 2.3 µM (active); in test [2] it was 5.44 µM (active); in [3], 2.12 µM (active).

Regarding `Cc1ccc(CN2CCC(CNC(=O)c3ccc(NC(=O)C4=CSCCO4)cc3)CC2)cc1`, the IC50 is > 20 µM (inactive) in test [4], 19.4 µM (active) in [5] and > 20 µM (inactive) in [6].

In the case of `CCOC(=O)NC(=O)C(=CNc1ccc(C)cc1)C(=O)NC(=O)OCC`, the IC50 in [7], in test [8] and in [9] was > 79.4 µM (inactive) each time.

In the case of `CCOc1ccc(C(=O)Nc2ccc(Cl)cn2)cc1Cl`, the IC50 in test [10] was > 47.1 µM (inactive); in test [7], > 79.4 µM (inactive); in test [8], > 79.4 µM (inactive); in [9], > 79.4 µM (inactive). In test [11], the EC50 was > 53 µM (inactive).

The CC50 is the concentration giving 50% cytotoxicity. `Cc1ccc(-c2cc(C(F)F)nc(S(C)(=O)=O)n2)cc1`: the IC50 in [12] was 7.88 µM (active). The EC50 in test [13] was 13.1 µM (active). Also, the 50% cytotoxic concentration (CC50) in test [14] was > 20 µM (active); in [15] it was 23.9 µM (active).

Regarding `Cc1cc(NC(=O)Cn2c(=O)n(CCCCC(=O)NC3CCN(Cc4ccccc4)CC3)c(=O)c3ccccc32)[nH]n1`, the IC50 in test [7] is > 79.4 µM (inactive); in test [5] it was > 20 µM (inactive); in test [8] it was > 79.4 µM (inactive); in [9], > 79.4 µM (inactive).

As a reminder, the AC50 is the concentration giving half of the maximal activity seen. For the compound `O=C(CNC(=O)c1cccc(F)c1)N/N=C/c1ccc([N+](=O)[O-])s1`, the IC50 in test [12] is 30.7 µM (active). The cytotoxic concentration (CC50) is > 20 µM (active) in test [14] and 28 µM (active) in [15]. The half-maximal activity concentration (AC50) in [16] is 7.45 µM (active).

`O=[N+]([O-])c1cc(Br)cc(/C=N/n2cnnc2)c1O`: the IC50 in test [7], in [8] and in [9] was > 79.4 µM (inactive) in each case.
